The values below come from patent publication US20260125400A1, “TYK2 DEGRADERS AND USES THEREOF” (Kymera Therapeutics, Inc., priority 2023, published 2026).

Molecules are shown by their SMILES.

The target in the assay is T1, TYK2 (Homo sapiens, UniProt P29597).
T1 construct: Degradation of TYK2 in cells was quantitatively measured using Meso Scale Discovery (MSD) technology; endogenous in cells; host or cells: OCI-LY10
The assay is described as follows: TYK2 MSD degradation in OCI-LY10 cells. It counts as cell-based. To be noted: OCI-LY10 cells, 4 to 24 hours incubation; for DC50: read-out: TYK2 MSD OCI-LY10 Rel-DC50. The method in brief:
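Cellular TYK2 levels were measured by Meso Scale Discovery sandwich detection in RIPA lysates of OCI-LY10 cells exposed 4 to 24 hours at 37° C to nine 1:3 compound doses starting at 1 to 10 μM final; dose-response fitted by four-parameter regression.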

T1 sequence (P29597 whole entry): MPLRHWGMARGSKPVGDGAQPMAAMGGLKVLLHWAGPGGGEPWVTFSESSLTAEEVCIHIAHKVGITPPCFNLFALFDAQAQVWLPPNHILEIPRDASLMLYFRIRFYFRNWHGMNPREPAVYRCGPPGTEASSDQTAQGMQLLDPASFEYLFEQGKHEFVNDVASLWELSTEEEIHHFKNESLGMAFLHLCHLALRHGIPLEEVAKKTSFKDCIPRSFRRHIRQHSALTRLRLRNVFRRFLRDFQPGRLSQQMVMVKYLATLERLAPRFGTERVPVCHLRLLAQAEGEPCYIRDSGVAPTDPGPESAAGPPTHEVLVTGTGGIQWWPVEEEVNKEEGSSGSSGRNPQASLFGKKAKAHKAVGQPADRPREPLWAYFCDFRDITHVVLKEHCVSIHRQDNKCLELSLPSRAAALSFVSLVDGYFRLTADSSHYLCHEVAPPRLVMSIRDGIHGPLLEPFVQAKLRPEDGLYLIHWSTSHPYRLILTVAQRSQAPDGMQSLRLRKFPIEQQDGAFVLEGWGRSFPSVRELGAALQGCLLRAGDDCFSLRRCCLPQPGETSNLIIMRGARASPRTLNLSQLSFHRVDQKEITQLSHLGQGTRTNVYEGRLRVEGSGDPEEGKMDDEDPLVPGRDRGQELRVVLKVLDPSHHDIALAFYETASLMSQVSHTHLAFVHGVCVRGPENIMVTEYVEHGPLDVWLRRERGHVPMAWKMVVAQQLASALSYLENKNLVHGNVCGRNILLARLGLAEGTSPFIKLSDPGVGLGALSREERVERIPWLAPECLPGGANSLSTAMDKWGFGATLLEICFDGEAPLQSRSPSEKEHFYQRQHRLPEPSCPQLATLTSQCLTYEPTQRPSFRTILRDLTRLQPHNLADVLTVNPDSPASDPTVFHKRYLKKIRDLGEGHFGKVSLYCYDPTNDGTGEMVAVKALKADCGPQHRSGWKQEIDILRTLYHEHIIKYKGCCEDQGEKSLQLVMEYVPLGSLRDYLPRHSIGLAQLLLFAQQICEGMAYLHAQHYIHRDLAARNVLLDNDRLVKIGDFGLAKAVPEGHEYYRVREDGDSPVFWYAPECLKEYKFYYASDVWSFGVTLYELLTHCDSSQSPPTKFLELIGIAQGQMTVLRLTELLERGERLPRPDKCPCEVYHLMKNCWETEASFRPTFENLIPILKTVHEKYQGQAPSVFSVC

The term DC50 denotes the midpoint of the concentration-degradation curve. Regarding `CNc1cc(N2CCc3c(CN4CCC(CN5CCC(N(C)c6ccc(Cl)c(N7CCC(=O)NC7=O)c6)CC5)C(F)(F)C4)cccc32)nn2c(C(=O)N[C@@H]3C[C@@H]3F)cnc12` (some centres unmarked) [I-751], the “TYK2 MSD OCI-LY10 Dmax %” value is recorded as “B (B (90 to >75%))” and the DC50 was under 10 nM.
In the same order, the values of `CNc1cc(N2CCc3c(-c4ccc(CN5CC6(CCC(N(C)c7ccc(Cl)c(N8CCC(=O)NC8=O)c7)CC6)C5)cn4)cccc32)nn2c(C(=O)N[C@@H]3CC[C@H]3OC)cnc12` [I-752] are “B (B (90 to >75%))” and under 10 nM.
For `CNc1cc(N2CCc3c(CN4CCC(N5CC(CC6CCN(C(=O)c7ccc(Cl)c(N8CCC(=O)NC8=O)c7)CC6)C5)C(F)(F)C4)cccc32)nn2c(C(=O)N[C@@H]3C[C@@H]3F)cnc12` (some centres unmarked) [I-753], in that order: “A (A (>90%))” and under 1 nM.
In the same order, the values of `CNc1cc(N2CCc3c(-c4ccc(CN5CC6(CCN(C(=O)c7cc(Cl)c(C)c(N8CCC(=O)NC8=O)c7)CC6(F)F)C5)cn4)cccc32)nn2c(C(=O)N[C@@H]3CC[C@H]3OC)cnc12` [I-754] are “A (A (>90%))” and under 1 nM.
With `CNc1cc(N2CCc3c2ccc(C)c3CN2CCC(N3CCC4(CCN(C(=O)c5ccc(Cl)c(N6CCC(=O)NC6=O)c5)CC4)CC3)C(F)(F)C2)nn2c(C(=O)N[C@@H]3C[C@@H]3F)cnc12` (some centres unmarked) [I-755], the “TYK2 MSD OCI-LY10 Dmax %” value is given as “C (C (75 to 50%))” and the DC50 was in the range of 10 to 100 nM.
For `CNc1cc(N2CCc3c(-c4ncc(CN5CC6(CCN(C(=O)c7cc(C)c(Cl)c(N8CCC(=O)NC8=O)c7)CC6(F)F)C5)cc4C)cccc32)nn2c(C(=O)N[C@@H]3C[C@@H]3F)cnc12` [I-756], in that order: “B (B (90 to >75%))” and under 10 nM.
`CNc1cc(N2CCc3c(-c4ccc(CN5CCC6(CCN(C(=O)c7cc(C)c(OC)c(N8CCC(=O)NC8=O)c7)CC6)C(F)(F)C5)cn4)cccc32)nn2c(C(=O)N[C@@H]3C[C@@H]3F)cnc12` [I-757]: the “TYK2 MSD OCI-LY10 Dmax %” value is “B (B (90 to >75%))” and the 50% degradation concentration (DC50) was under 10 nM.
For `CNc1cc(N2CCc3c(CN4CCC(N5CCC(N(C)c6ccc(Cl)c(N7CCC(=O)NC7=O)c6)CC5)C(F)(F)C4)cccc32)nn2c(C(=O)N[C@@H]3C[C@@H]3F)cnc12` (some centres unmarked) [I-758], in that order: “B (B (90 to >75%))” and under 10 nM.
In the same order, the values of `CNc1cc(N2CCc3c(-c4cnc(CC5CC6(CCN(C(=O)c7cc(C)c(Cl)c(N8CCC(=O)NC8=O)c7)CC6)C5)cn4)cccc32)nn2c(C(=O)N[C@@H]3C[C@@H]3F)cnc12` [I-760] are “B (B (90 to >75%))” and under 10 nM.
For `CNc1cc(N2CCc3c(CN4CCC(CN5CCN(C(=O)c6ccc(Cl)c(N7CCC(=O)NC7=O)c6)CC5)C(F)(F)C4)cccc32)nn2c(C(=O)N[C@@H]3C[C@@H]3F)cnc12` (some centres unmarked) [I-761], in that order: “B (B (90 to >75%))” and under 10 nM.
On to `CNc1cc(N2CCc3c(-c4ncc(CN5CCC6(CCN(C(=O)c7cc(C)c(Cl)c(N8CCC(=O)NC8=O)c7)CC6)C(F)(F)C5)cc4C)cccc32)nn2c(C(=O)N[C@@H]3C[C@@H]3F)cnc12` [I-763], for which the “TYK2 MSD OCI-LY10 Dmax %” value is recorded as “B (B (90 to >75%))” and the DC50 is under 10 nM.
For `CNc1cc(N2CCc3c(CN4CCC(N5CCC6(CCN(C(=O)c7cc(Cl)c(OC)c(N8CCC(=O)NC8=O)c7)CC6)CC5)C(F)(F)C4)cccc32)nn2c(C(=O)N[C@@H]3C[C@@H]3F)cnc12` (some centres unmarked) [I-764], in that order: “B (B (90 to >75%))” and under 10 nM.
In the same order, the values of `CNc1cc(N2CCc3c(CN4CCC(N5CCC6(CCN(C(=O)c7cc(N8CCC(=O)NC8=O)c(Cl)cc7C)CC6)CC5)C(F)(F)C4)cccc32)nn2c(C(=O)N[C@@H]3C[C@@H]3F)cnc12` (some centres unmarked) [I-765] are “B (B (90 to >75%))” and under 10 nM.
With `CNc1cc(N2CCc3c(CN4CCC(CN5CCC6(CC5)CCN(C(=O)c5ccc(Cl)c(N7CCC(=O)NC7=O)c5)CC6)C(F)(F)C4)cccc32)nn2c(C(=O)N[C@@H]3C[C@@H]3F)cnc12` (some centres unmarked) [I-766], the “TYK2 MSD OCI-LY10 Dmax %” value is “A (A (>90%))” and the DC50 was under 1 nM.
With `CNc1cc(-c2cn(C3CCN(C4CCN(C(=O)c5ccc(Cl)c(N6CCC(=O)NC6=O)c5)CC4)CC3)c3ccccc23)nn2c(C(=O)N[C@@H]3C[C@@H]3F)cnc12` [I-767], the “TYK2 MSD OCI-LY10 Dmax %” value is “D (D (<50%))” and the DC50 is over 100 nM.
In the same order, the values of `CNc1cc(-c2cn(CC3CCN(C4CCN(C(=O)c5ccc(Cl)c(N6CCC(=O)NC6=O)c5)CC4)CC3)c3ccccc23)nn2c(C(=O)N[C@@H]3C[C@@H]3F)cnc12` [I-768] are “D (D (<50%))” and over 100 nM.
In the case of `CNc1cc(N2CCc3c(CN4CCC(N5CCC6(CCN(C(=O)c7cc(F)c(OC)c(N8CCC(=O)NC8=O)c7)CC6)CC5)C(F)(F)C4)cccc32)nn2c(C(=O)N[C@@H]3C[C@@H]3F)cnc12` (some centres unmarked) [I-769], the “TYK2 MSD OCI-LY10 Dmax %” value is “B (B (90 to >75%))” and the DC50 is under 10 nM.
In the case of `CNc1cc(N2CCc3c(CN4CCC(CN5CCC(N6CCN(C(=O)c7ccc(Cl)c(N8CCC(=O)NC8=O)c7)CC6)CC5)C(F)(F)C4)cccc32)nn2c(C(=O)N[C@@H]3C[C@@H]3F)cnc12` (some centres unmarked) [I-770], the “TYK2 MSD OCI-LY10 Dmax %” value is recorded as “B (B (90 to >75%))” and the DC50 is under 10 nM.
In the same order, the values of `CNc1cc(-c2cn(CC3CCN(CCC4CCN(C(=O)c5ccc(Cl)c(N6CCC(=O)NC6=O)c5)CC4)CC3)c3ccccc23)nn2c(C(=O)N[C@@H]3C[C@@H]3F)cnc12` [I-771] are “B (B (90 to >75%))” and under 10 nM.
On to `CNc1cc(-c2cn(CC3CCN(CC4CCN(C(=O)c5ccc(Cl)c(N6CCC(=O)NC6=O)c5)CC4)CC3)c3ccccc23)nn2c(C(=O)N[C@@H]3C[C@@H]3F)cnc12` [I-773], for which the “TYK2 MSD OCI-LY10 Dmax %” value is on record as “D (D (<50%))” and the half-maximal degradation concentration (DC50) was over 100 nM.
In the same order, the values of `CNc1cc(N2CCc3c(CN4CCC(N5CCC6(CCN(C(=O)c7cc(C)c(Cl)c(N8CCC(=O)NC8=O)c7)CC6)CC5)C(F)(F)C4)cccc32)nc2c(C(=O)N[C@@H]3C[C@@H]3F)cnn12` (some centres unmarked) [I-775] are “A (A (>90%))” and under 1 nM.
For `CNc1cc(N2CCc3c(-c4ccc(CN5CCC6(CCN(C(=O)c7cc(F)c(OC)c(N8CCC(=O)NC8=O)c7)CC6)C(F)(F)C5)cn4)cccc32)nn2c(C(=O)N[C@@H]3C[C@@H]3F)cnc12` [I-776], in that order: “B (B (90 to >75%))” and under 10 nM.
In the same order, the values of `CNc1cc(-c2cn(C3CCN(CCC4CCN(C(=O)c5ccc(Cl)c(N6CCC(=O)NC6=O)c5)CC4)CC3)c3ccccc23)nn2c(C(=O)N[C@@H]3C[C@@H]3F)cnc12` [I-779] are “D (D (<50%))” and over 100 nM.
With `CNc1cc(N2CCc3c(CN4CCC(N5CCC(C6CCN(C(=O)c7ccc(Cl)c(N8CCC(=O)NC8=O)c7)CC6)CC5)C(F)(F)C4)cccc32)nn2c(C(=O)N[C@@H]3C[C@@H]3F)cnc12` (some centres unmarked) [I-780], the “TYK2 MSD OCI-LY10 Dmax %” value is “A (A (>90%))” and the DC50 is under 1 nM.
With `CNc1cc(N2CCc3c(N4CC(CN5CCC(N6CCN(C(=O)c7ccc(Cl)c(N8CCC(=O)NC8=O)c7)CC6)C(F)(F)C5)C4)cccc32)nn2c(C(=O)N[C@@H]3C[C@@H]3F)cnc12` (some centres unmarked) [I-781], the “TYK2 MSD OCI-LY10 Dmax %” value is on record as “D (D (<50%))” and the DC50 was over 100 nM.
